Test results reported in ChEMBL document CHEMBL4725375, “Total synthesis and a systematic structure-activity relationship study of WAP-8294A2” (2020).
In brackets after ≈: the same amount, converted by molar mass.

Experiments:
Staphylococcus aureus [1] = assay: Antibacterial activity against Staphylococcus aureus ATCC 29213 by CLSI M07-A8 protocol based microdilution method; assay type: functional
Staphylococcus aureus [2] = assay: Antibacterial activity against methicillin-resistant Staphylococcus aureus SA86 by CLSI M07-A8 protocol based microdilution method; assay type: functional

Row | Structure (SMILES) | MIC (Staphylococcus aureus [1]) [µg/mL] | MIC (Staphylococcus aureus [2]) [µg/mL]
1 | CC(C)CCC[C@@H]1CC(=O)N[C@@H](CO)C(=O)N[C@H](CC(N)=O)C(=O)N[C@@H](CO)C(=O)NCC(=O)N(C)[C@H](Cc2ccccc2)C(=O)N[C@@H](CC(C)C)C(=O)N[C@H](CCCN)C(=O)N[C@@H](CCC(=O)O)C(=O)N[C@H](CC(N)=O)C(=O)N[C@H](C)C(=O)N[C@H](CCCN)C(=O)N(C)[C@@H](C(C)C)C(=O)O1 | ≥ 32 | ≥ 32
2 | CC(C)CCC[C@@H]1CC(=O)N[C@@H](CO)C(=O)N[C@H](CCCCN)C(=O)N[C@@H](CO)C(=O)NCC(=O)N(C)[C@H](Cc2ccccc2)C(=O)N[C@@H](CC(C)C)C(=O)N[C@H](CCCN)C(=O)N[C@@H](CCC(=O)O)C(=O)N[C@H](CC(N)=O)C(=O)N[C@H](Cc2c[nH]c3ccccc23)C(=O)N[C@H](CCCN)C(=O)N(C)[C@@H](C(C)C)C(=O)O1 | 2 (≈ 1.28 µM) | 1 (≈ 0.641 µM)
3 | CC(C)CCC[C@@H]1CC(=O)N[C@@H](CO)C(=O)N[C@H](CC(N)=O)C(=O)N[C@@H](CO)C(=O)NCC(=O)N(C)[C@H](Cc2ccccc2)C(=O)N[C@@H](CC(C)C)C(=O)N[C@H](CCCN)C(=O)N[C@@H](CCC(=O)O)C(=O)N[C@H](CC(N)=O)C(=O)N[C@H](Cc2c[nH]c3ccccc23)C(=O)N[C@H](CCCCN)C(=O)N(C)[C@@H](C(C)C)C(=O)O1 | 1 (≈ 0.641 µM) | 2 (≈ 1.28 µM)
4 | CC(C)CCC[C@@H]1CC(=O)N[C@@H](CO)C(=O)N[C@H](CC(N)=O)C(=O)N[C@@H](CO)C(=O)NCC(=O)N(C)[C@H](Cc2ccccc2)C(=O)N[C@@H](CC(C)C)C(=O)N[C@H](C)C(=O)N[C@@H](CCC(=O)O)C(=O)N[C@H](CC(N)=O)C(=O)N[C@H](Cc2c[nH]c3ccccc23)C(=O)N[C@H](CCCN)C(=O)N(C)[C@@H](C(C)C)C(=O)O1 | ≥ 32 | ≥ 32
5 | CC(C)CCC[C@@H]1CC(=O)N[C@@H](CO)C(=O)N[C@H](CC(N)=O)C(=O)N[C@@H](CO)C(=O)NCC(=O)N(C)[C@H](Cc2ccccc2)C(=O)N[C@@H](C)C(=O)N[C@H](CCCN)C(=O)N[C@@H](CCC(=O)O)C(=O)N[C@H](CC(N)=O)C(=O)N[C@H](Cc2c[nH]c3ccccc23)C(=O)N[C@H](CCCN)C(=O)N(C)[C@@H](C(C)C)C(=O)O1 | ≥ 32 | ≥ 32
6 | CC(C)CCC[C@@H]1CC(=O)N[C@@H](CO)C(=O)N[C@H](CC(N)=O)C(=O)N[C@@H](CO)C(=O)NCC(=O)N(C)[C@H](Cc2ccccc2)C(=O)N[C@@H](CC(C)C)C(=O)N[C@H](CCCN)C(=O)N[C@@H](CCCCN)C(=O)N[C@H](CC(N)=O)C(=O)N[C@H](Cc2c[nH]c3ccccc23)C(=O)N[C@H](CCCN)C(=O)N(C)[C@@H](C(C)C)C(=O)O1 | 2 (≈ 1.29 µM) | 1 (≈ 0.647 µM)
7 | CC(C)CCC[C@@H]1CC(=O)N[C@@H](CCCCN)C(=O)N[C@H](CC(N)=O)C(=O)N[C@@H](CO)C(=O)NCC(=O)N(C)[C@H](Cc2ccccc2)C(=O)N[C@@H](CC(C)C)C(=O)N[C@H](CCCN)C(=O)N[C@@H](CCC(=O)O)C(=O)N[C@H](CC(N)=O)C(=O)N[C@H](Cc2c[nH]c3ccccc23)C(=O)N[C@H](CCCN)C(=O)N(C)[C@@H](C(C)C)C(=O)O1 | 2 (≈ 1.26 µM) | 2 (≈ 1.26 µM)
8 | CC(C)CCC[C@@H]1CC(=O)N[C@@H](CO)C(=O)N[C@H](CC(N)=O)C(=O)N[C@@H](CO)C(=O)NCC(=O)N(C)[C@H](Cc2ccccc2)C(=O)N[C@@H](CC(C)C)C(=O)N[C@H](CCCN)C(=O)N[C@@H](CCC(=O)O)C(=O)N[C@H](CC(N)=O)C(=O)N[C@H](Cc2c[nH]c3ccccc23)C(=O)N[C@H](CCCN)C(=O)N[C@@H](C(C)C)C(=O)O1 | ≥ 32 | ≥ 32
9 | CC(C)CCC[C@@H]1CC(=O)N[C@@H](CO)C(=O)N[C@H](CC(N)=O)C(=O)N[C@@H](C)C(=O)NCC(=O)N(C)[C@H](Cc2ccccc2)C(=O)N[C@@H](CC(C)C)C(=O)N[C@H](CCCN)C(=O)N[C@@H](CCC(=O)O)C(=O)N[C@H](CC(N)=O)C(=O)N[C@H](Cc2c[nH]c3ccccc23)C(=O)N[C@H](CCCN)C(=O)N(C)[C@@H](C(C)C)C(=O)O1 | 2 (≈ 1.31 µM) | 2 (≈ 1.31 µM)
10 | CC(C)CCC[C@@H]1CC(=O)N[C@@H](CO)C(=O)N[C@H](CC(N)=O)C(=O)N[C@@H](CCCCN)C(=O)NCC(=O)N(C)[C@H](Cc2ccccc2)C(=O)N[C@@H](CC(C)C)C(=O)N[C@H](CCCN)C(=O)N[C@@H](CCC(=O)O)C(=O)N[C@H](CC(N)=O)C(=O)N[C@H](Cc2c[nH]c3ccccc23)C(=O)N[C@H](CCCN)C(=O)N(C)[C@@H](C(C)C)C(=O)O1 | 4 (≈ 2.52 µM) | 2 (≈ 1.26 µM)
11 | CC(C)CCC[C@@H]1CC(=O)N[C@@H](CO)C(=O)N[C@H](CC(N)=O)C(=O)N[C@@H](CO)C(=O)NCC(=O)N(C)[C@H](Cc2ccccc2)C(=O)N[C@@H](CCCCN)C(=O)N[C@H](CCCN)C(=O)N[C@@H](CCC(=O)O)C(=O)N[C@H](CC(N)=O)C(=O)N[C@H](Cc2c[nH]c3ccccc23)C(=O)N[C@H](CCCN)C(=O)N(C)[C@@H](C(C)C)C(=O)O1 | ≥ 32 | ≥ 32
12 | CC(C)CCC[C@@H]1CC(=O)N[C@@H](CO)C(=O)N[C@H](CC(N)=O)C(=O)N[C@@H](CO)C(=O)NCC(=O)N(C)[C@H](Cc2ccccc2)C(=O)N[C@@H](CC(C)C)C(=O)N[C@H](CCCN)C(=O)N[C@@H](C)C(=O)N[C@H](CC(N)=O)C(=O)N[C@H](Cc2c[nH]c3ccccc23)C(=O)N[C@H](CCCN)C(=O)N(C)[C@@H](C(C)C)C(=O)O1 | 1 (≈ 0.672 µM) | 0.5 (≈ 0.336 µM)
13 | CC(C)CCC[C@@H]1CC(=O)N[C@@H](CO)C(=O)N[C@H](CC(N)=O)C(=O)N[C@@H](CO)C(=O)NCC(=O)N(C)[C@H](Cc2ccccc2)C(=O)N[C@@H](CC(C)C)C(=O)N[C@H](CCCN)C(=O)N[C@@H](CCC(=O)O)C(=O)N[C@H](CC(N)=O)C(=O)N[C@H](Cc2c[nH]c3ccccc23)C(=O)N[C@H](CCCN)C(=O)N(C)[C@@H](C(C)C)C(=O)O1 | 1 (≈ 0.647 µM) | 1 (≈ 0.647 µM)
14 | CC(C)CCC[C@@H]1CC(=O)N[C@@H](CO)C(=O)N[C@H](CC(N)=O)C(=O)N[C@@H](CO)C(=O)N[C@@H](C)C(=O)N(C)[C@H](Cc2ccccc2)C(=O)N[C@@H](CC(C)C)C(=O)N[C@H](CCCN)C(=O)N[C@@H](CCC(=O)O)C(=O)N[C@H](CC(N)=O)C(=O)N[C@H](Cc2c[nH]c3ccccc23)C(=O)N[C@H](CCCN)C(=O)N(C)[C@@H](C(C)C)C(=O)O1 | ≥ 32 | ≥ 32
15 | CC(C)CCC[C@@H]1CC(=O)N[C@@H](CO)C(=O)N[C@H](C)C(=O)N[C@@H](CO)C(=O)NCC(=O)N(C)[C@H](Cc2ccccc2)C(=O)N[C@@H](CC(C)C)C(=O)N[C@H](CCCN)C(=O)N[C@@H](CCC(=O)O)C(=O)N[C@H](CC(N)=O)C(=O)N[C@H](Cc2c[nH]c3ccccc23)C(=O)N[C@H](CCCN)C(=O)N(C)[C@@H](C(C)C)C(=O)O1 | 1 (≈ 0.665 µM) | 2 (≈ 1.33 µM)
16 | CC(C)CCC[C@@H]1CC(=O)N[C@@H](CO)C(=O)N[C@H](CC(N)=O)C(=O)N[C@@H](CO)C(=O)NCC(=O)N(C)[C@H](Cc2ccccc2)C(=O)N[C@@H](CC(C)C)C(=O)N[C@H](CCCN)C(=O)N[C@@H](CCC(=O)O)C(=O)N[C@H](CCCCN)C(=O)N[C@H](Cc2c[nH]c3ccccc23)C(=O)N[C@H](CCCN)C(=O)N(C)[C@@H](C(C)C)C(=O)O1 | 1 (≈ 0.641 µM) | 1 (≈ 0.641 µM)
17 | CC(C)CCC[C@@H]1CC(=O)N[C@@H](C)C(=O)N[C@H](CC(N)=O)C(=O)N[C@@H](CO)C(=O)NCC(=O)N(C)[C@H](Cc2ccccc2)C(=O)N[C@@H](CC(C)C)C(=O)N[C@H](CCCN)C(=O)N[C@@H](CCC(=O)O)C(=O)N[C@H](CC(N)=O)C(=O)N[C@H](Cc2c[nH]c3ccccc23)C(=O)N[C@H](CCCN)C(=O)N(C)[C@@H](C(C)C)C(=O)O1 | 2 (≈ 1.31 µM) | 2 (≈ 1.31 µM)
18 | CC(C)CCC[C@@H]1CC(=O)N[C@@H](CO)C(=O)N[C@H]([C@@H](O)C(N)=O)C(=O)N[C@@H](CO)C(=O)NCC(=O)N(C)[C@H](Cc2ccccc2)C(=O)N[C@@H](CC(C)C)C(=O)N[C@H](CCCN)C(=O)N[C@@H](CCC(=O)O)C(=O)N[C@H](CC(N)=O)C(=O)N[C@H](Cc2c[nH]c3ccccc23)C(=O)N[C@H](CCCN)C(=O)N(C)[C@@H](C(C)C)C(=O)O1 | 1 (≈ 0.64 µM) | 1 (≈ 0.64 µM)
19 | CC(C)CCC[C@@H]1CC(=O)N[C@@H](CO)C(=O)N[C@H](CC(N)=O)C(=O)N[C@@H](CO)C(=O)NCC(=O)N(C)[C@H](Cc2ccccc2)C(=O)N[C@@H](CC(C)C)C(=O)N[C@H](CCCCN)C(=O)N[C@@H](CCC(=O)O)C(=O)N[C@H](CC(N)=O)C(=O)N[C@H](Cc2c[nH]c3ccccc23)C(=O)N[C@H](CCCN)C(=O)N(C)[C@@H](C(C)C)C(=O)O1 | 1 (≈ 0.641 µM) | 2 (≈ 1.28 µM)
20 | CC(C)CCC[C@@H]1CC(=O)N[C@@H](CO)C(=O)N[C@H](CC(N)=O)C(=O)N[C@@H](CO)C(=O)NCC(=O)N[C@H](C)C(=O)N[C@@H](CC(C)C)C(=O)N[C@H](CCCN)C(=O)N[C@@H](CCC(=O)O)C(=O)N[C@H](CC(N)=O)C(=O)N[C@H](Cc2c[nH]c3ccccc23)C(=O)N[C@H](CCCN)C(=O)N(C)[C@@H](C(C)C)C(=O)O1 | ≥ 32 | ≥ 32
21 | CC(C)CCC[C@@H]1CC(=O)N[C@@H](CO)C(=O)N[C@H](CC(N)=O)C(=O)N[C@@H](CO)C(=O)NCC(=O)N(C)[C@H](Cc2ccccc2)C(=O)N[C@@H](CC(C)C)C(=O)N[C@H](CCCN)C(=O)N[C@@H](CCC(=O)O)C(=O)N[C@H](C)C(=O)N[C@H](Cc2c[nH]c3ccccc23)C(=O)N[C@H](CCCN)C(=O)N(C)[C@@H](C(C)C)C(=O)O1 | 2 (≈ 1.33 µM) | 1 (≈ 0.665 µM)
22 | CC(C)CCC[C@@H]1CC(=O)N[C@@H](CO)C(=O)N[C@H](CC(N)=O)C(=O)N[C@@H](CO)C(=O)NCC(=O)N(C)[C@H](Cc2ccccc2)C(=O)N[C@@H](CC(C)C)C(=O)N[C@H](CCCN)C(=O)N[C@@H](CCC(=O)O)C(=O)N[C@H](CC(N)=O)C(=O)N[C@H](Cc2c[nH]c3ccccc23)C(=O)N[C@H](C)C(=O)N(C)[C@@H](C(C)C)C(=O)O1 | ≥ 32 | ≥ 32
23 | CC(C)CCC[C@@H]1CC(=O)N[C@@H](CO)C(=O)N[C@H]([C@H](O)C(N)=O)C(=O)N[C@@H](CO)C(=O)NCC(=O)N(C)[C@H](Cc2ccccc2)C(=O)N[C@@H](CC(C)C)C(=O)N[C@H](CCCN)C(=O)N[C@@H](CCC(=O)O)C(=O)N[C@H](CC(N)=O)C(=O)N[C@H](Cc2c[nH]c3ccccc23)C(=O)N[C@H](CCCN)C(=O)N(C)[C@@H](C(C)C)C(=O)O1 | 1 (≈ 0.64 µM) | 1 (≈ 0.64 µM)
